Data on 7 compounds can be found in ChEMBL document CHEMBL4364351, “PROTAC Degradation of Bromodomain for the Treatment of Hyperplasia and Cancer” (ACS Med Chem Lett, 2019).

The term IC50 denotes the midpoint of a concentration-inhibition curve.

Type in all cases: cell-based
Assay [1] deals with Protein cereblon/Androgen receptor (Homo sapiens) (UniProt P10275+Q96SW2). As to the kind of experiment: Protac activity at CRBN/AR in human VCaP cells assessed as AR degradation at 0.0001 to 1 uM after 16 hrs by sandwich ELISA relative to control.
Protein cereblon/Androgen receptor (Homo sapiens), sequence (P10275 whole entry, looked up): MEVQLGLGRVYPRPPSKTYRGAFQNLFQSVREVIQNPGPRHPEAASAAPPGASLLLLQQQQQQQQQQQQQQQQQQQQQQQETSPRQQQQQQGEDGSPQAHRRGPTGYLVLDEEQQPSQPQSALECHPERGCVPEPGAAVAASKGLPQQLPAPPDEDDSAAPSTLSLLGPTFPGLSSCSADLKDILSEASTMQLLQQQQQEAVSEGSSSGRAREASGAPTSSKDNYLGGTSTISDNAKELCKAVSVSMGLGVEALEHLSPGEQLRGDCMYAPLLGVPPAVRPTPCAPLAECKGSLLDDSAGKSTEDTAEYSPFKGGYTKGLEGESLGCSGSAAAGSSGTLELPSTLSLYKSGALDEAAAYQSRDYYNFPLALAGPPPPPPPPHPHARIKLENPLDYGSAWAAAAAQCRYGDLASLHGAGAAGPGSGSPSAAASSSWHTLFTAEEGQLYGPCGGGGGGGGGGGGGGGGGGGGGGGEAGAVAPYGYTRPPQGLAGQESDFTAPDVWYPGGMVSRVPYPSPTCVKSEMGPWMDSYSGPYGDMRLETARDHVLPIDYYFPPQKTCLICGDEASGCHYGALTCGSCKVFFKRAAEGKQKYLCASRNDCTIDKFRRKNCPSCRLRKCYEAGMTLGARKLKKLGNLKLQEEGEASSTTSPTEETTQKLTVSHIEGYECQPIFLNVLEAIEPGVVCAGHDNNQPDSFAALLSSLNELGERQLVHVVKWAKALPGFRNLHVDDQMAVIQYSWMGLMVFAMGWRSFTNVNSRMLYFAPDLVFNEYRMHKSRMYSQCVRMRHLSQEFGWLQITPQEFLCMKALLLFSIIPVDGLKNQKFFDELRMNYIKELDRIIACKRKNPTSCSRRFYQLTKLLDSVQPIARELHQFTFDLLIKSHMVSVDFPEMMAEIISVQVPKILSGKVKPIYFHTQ
Protein cereblon/Androgen receptor (Homo sapiens), sequence (Q96SW2 whole entry, looked up): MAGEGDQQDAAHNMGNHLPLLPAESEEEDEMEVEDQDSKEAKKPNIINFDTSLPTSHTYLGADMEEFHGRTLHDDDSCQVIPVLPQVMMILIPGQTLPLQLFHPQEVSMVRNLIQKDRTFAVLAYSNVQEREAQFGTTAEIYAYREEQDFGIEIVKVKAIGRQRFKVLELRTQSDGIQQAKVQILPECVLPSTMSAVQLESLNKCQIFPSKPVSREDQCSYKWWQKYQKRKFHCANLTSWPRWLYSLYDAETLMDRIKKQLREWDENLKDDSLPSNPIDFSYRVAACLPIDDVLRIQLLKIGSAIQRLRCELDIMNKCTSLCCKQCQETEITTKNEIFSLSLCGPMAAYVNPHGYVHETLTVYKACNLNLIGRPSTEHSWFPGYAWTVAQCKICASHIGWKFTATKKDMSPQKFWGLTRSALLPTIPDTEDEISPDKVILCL
For assay [2], the target named is Protein cereblon/Serine/threonine-protein kinase TBK1 (Homo sapiens) (UniProt Q9UHD2+Q96SW2). As to the kind of experiment: Protac activity at CRBN/TBK1 in human Panc02.13 cells assessed as TBK1 degradation at 0.1 to 1 uM after 16 hrs by Western blot analysis relative to control. In general terms: Immunoblotting shows a protein as a band on a membrane.
Protein cereblon/Serine/threonine-protein kinase TBK1 (Homo sapiens), sequence (Q96SW2 whole entry, looked up): as above
Protein cereblon/Serine/threonine-protein kinase TBK1 (Homo sapiens), sequence (Q9UHD2 whole entry, looked up): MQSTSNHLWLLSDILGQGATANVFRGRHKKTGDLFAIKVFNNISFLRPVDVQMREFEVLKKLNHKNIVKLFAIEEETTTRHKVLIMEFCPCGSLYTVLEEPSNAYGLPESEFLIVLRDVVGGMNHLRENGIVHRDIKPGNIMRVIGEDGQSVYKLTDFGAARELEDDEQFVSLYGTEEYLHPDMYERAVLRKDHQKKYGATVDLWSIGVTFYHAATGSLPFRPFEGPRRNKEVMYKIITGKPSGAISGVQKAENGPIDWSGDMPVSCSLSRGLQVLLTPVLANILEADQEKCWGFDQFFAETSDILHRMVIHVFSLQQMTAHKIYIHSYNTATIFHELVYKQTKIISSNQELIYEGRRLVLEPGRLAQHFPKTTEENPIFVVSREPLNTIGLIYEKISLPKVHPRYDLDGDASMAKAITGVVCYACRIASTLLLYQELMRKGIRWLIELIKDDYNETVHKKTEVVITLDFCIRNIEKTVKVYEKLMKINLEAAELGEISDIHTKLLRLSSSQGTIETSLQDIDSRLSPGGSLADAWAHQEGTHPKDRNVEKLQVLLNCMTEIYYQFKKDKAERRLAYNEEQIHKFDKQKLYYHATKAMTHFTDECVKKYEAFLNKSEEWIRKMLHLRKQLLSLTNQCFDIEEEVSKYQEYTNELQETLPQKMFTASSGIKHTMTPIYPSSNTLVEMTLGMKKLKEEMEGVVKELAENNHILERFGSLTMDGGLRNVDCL
Assay [3] has as its target Protein cereblon/Bromodomain-containing protein 4 (Homo sapiens, UniProt O60885+Q96SW2). As to the kind of experiment: Protac activity at CRBN/BRD4 in human 22Rv1 cells assessed as c-MYC degradation after 18 hrs by ELISA. (In general: ELISA stands for enzyme-linked immunosorbent assay.)
The target in assay [4] is Protein cereblon/Steroid hormone receptor ERR1 (Homo sapiens) (UniProt P11474+Q96SW2). The assay is described as follows: Protac activity at CRBN/ERRalpha in human NAMALWA cells assessed as ERRalpha degradation at 0.1 to 1 uM after 16 hrs by Western blot analysis relative to control.
Protein cereblon/Steroid hormone receptor ERR1 (Homo sapiens), sequence (P11474 whole entry, looked up): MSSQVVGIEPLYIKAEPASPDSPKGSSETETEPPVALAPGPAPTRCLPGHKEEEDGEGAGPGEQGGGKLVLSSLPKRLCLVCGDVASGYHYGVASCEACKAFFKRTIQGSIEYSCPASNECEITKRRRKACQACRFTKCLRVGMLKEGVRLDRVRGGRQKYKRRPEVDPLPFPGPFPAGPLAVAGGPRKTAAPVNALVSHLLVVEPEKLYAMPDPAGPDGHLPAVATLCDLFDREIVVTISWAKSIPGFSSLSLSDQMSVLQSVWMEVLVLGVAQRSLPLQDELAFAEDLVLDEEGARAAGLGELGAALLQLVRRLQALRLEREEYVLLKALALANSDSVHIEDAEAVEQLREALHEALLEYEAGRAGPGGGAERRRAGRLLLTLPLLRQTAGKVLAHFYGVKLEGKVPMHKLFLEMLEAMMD
Protein cereblon/Steroid hormone receptor ERR1 (Homo sapiens), sequence (Q96SW2 whole entry, looked up): as the sequence (Q96SW2 whole entry, looked up) above

Protein cereblon/Bromodomain-containing protein 4, sequence (Q96SW2 whole entry, looked up, other chains not shown): as the sequence (Q96SW2 whole entry, looked up) above

`CC1(C)C(=O)N(c2ccc(C#N)c(C(F)(F)F)c2)C(=S)N1c1ccc(-c2ccc(OCCCCCNc3cccc4c3C(=O)N(C3CCC(=O)NC3=O)C4=O)cc2)cc1` (configuration not stated): the Activity in assay [1] is over 50%. For `CN(CCCNc1nc(Nc2ccc(OCCOCCOCCOCCOCCNc3cccc4c3C(=O)N(C3CCC(=O)NC3=O)C4=O)cc2)ncc1Br)C(=O)C1CCC1` (configuration not stated), in assay [2], the Activity is over 50%. For the compound `Cc1sc2c(c1C)C(c1ccc(Cl)cc1)=NC(CC(=O)NCCOCCNc1cccc3c1C(=O)N(C1CCC(=O)NC1=O)C3=O)c1nnc(C)n1-2` (configuration not stated), the IC50 in assay [3] was under 50 nM. In the case of `CC1(C)[C@H](NC(=O)c2ccc(OCCCCCOCCCNc3cccc4c3C(=O)N(C3CCC(=O)NC3=O)C4=O)cc2)C(C)(C)[C@H]1Oc1ccc(C#N)c(Cl)c1` (some centres not stated), the Activity in assay [1] was over 50%. Take `COc1cc(/C=C2\SC(=O)N(CCCOCCNc3cccc4c3C(=O)N(C3CCC(=O)NC3=O)C4=O)C2=O)ccc1Oc1ccc(C#N)cc1C(F)(F)F` (configuration not stated): the Activity in assay [4] was over 50%. On to `CN(CCCNc1nc(Nc2ccc(OCCOCCOCCOCCOCCOCCNc3cccc4c3C(=O)N(C3CCC(=O)NC3=O)C4=O)cc2)ncc1Br)C(=O)C1CCC1` (configuration not stated), for which, in assay [2], the Activity was over 50%. As to `Cc1sc2c(c1C)C(c1ccc(Cl)cc1)=NC(CC(=O)N[C@@H](C)c1ccc(OCCOCCNc3cccc4c3C(=O)N(C3CCC(=O)NC3=O)C4=O)cc1)c1nnc(C)n1-2` (some centres not stated), the half-inhibitory concentration (IC50) in assay [3] was under 50 nM.
